The values that follow come from patent US20260234634A1, “UNG/UDG INHIBITION IN BRCA-ASSOCIATED CANCER” (INSTITUT CURIE, priority 2023, published 2026).

Common to all, as to type: cell-based
One test deals with WT RPE-1 cells. The test is described as follows: 12-day clonogenic survival assay, WT cells. Particulars: for IC50: calculated IC50, WT cells. On the procedure:
(§1) a. Top, Immunoblot profiling of WT and NMNAT1^−/− RPE-1 cells for the indicated proteins. Bands corresponding to UNG1 (lower MW) and UNG2 (higher MW) are indicated. […] Cells were treated for 24 hours with the indicated doses of FdUrd, with and without 5 μM TAS-114. Bottom, Cell cycle distribution of WT (+/+) and NMNAT1^−/− (−/−) RPE-1 cells treated as in (top) (n=2). b. Quantification of gDNA-uracil and DNA breaks by modified comet assay with (right) and without (left) recombinant UNG (rUNG) respectively, in WT RPE-1 cells upon 24-hour FdUrd treatment with and without 5 μM TAS-114. Results are shown as tail moment. At least 80 comets per condition was measured using CometScore. […] The enzymes involved are indicated in bold and italic. Bottom, Immunoblot profiling of NMNAT1, ADP-ribosylation (PAR) and PARP1 (short and long exposures) in WT and NMNAT1^−/− cells complemented or not with wild type (WT) or catalytically-dead mutant (MUT) NMNAT1 (W169A). PARP1 was detected after membrane stripping of the anti-ADP ribosylation antibody. Cells were treated or not with PDD 00017273 (PARGi, 10 μM) for 2 hours and 10 mM MMS was added the last 10 minutes before cell lysis. Vinculin was used as loading control. d. Quantification of the 12-day clonogenic survival assay of the same cells as in (c, bottom) treated or not with the indicated doses of rucaparib (PARPi) for the duration of the experiment (n=3). e. Quantification of the 12-day clonogenic survival assay in WT (black) and NMNAT1^−/− (red) cells following exposure to the indicated doses of the indicated DNA-damaging drugs (n=3). f. Quantification of the 12-day clonogenic survival assay in WT, NMNAT1^−/−, and UNG^−/− cells following 24-hour exposure to the indicated doses of FdUrd with or without 5 μM TAS-114 (n=3). g. Quantification of the 12-day clonogenic survival assay in WT (black), NMNAT1^−/−, and UNG^−/− cells following 24-hour exposure to the indicated doses of TAS-114. (n=3). For WT cells, data are the same as in (FIG. 14c). h. Top, RT-qPCR quantification of DUT mRNA levels following 72-hour transfection of WT RPE-1 cells with DUT siRNA (siDUT) or relative control (siCTRL). Results are represented as fold change over siCTRL. (Bottom), Quantification of the 12-day clonogenic survival assay in WT (left), NMNAT1^−/− (middle), and UNG^−/− (right) cells following transfection with DUT siRNA and relative control (siCTRL). Data were expressed as a percentage (mean±s.e.m.) of colonies formed in each cell line relative to the appropriate siCTRL (n=3). i. Quantification of gDNA-uracil and DNA breaks as in (b) in WT and NMNAT1^−/− cells upon 0.08 μM FdUrd treatment with and without 5 μM TAS-114 for 24 hours.
(§2) To investigate the mechanism underlying the interplay between UNG and SMUG1, the inventors investigated the role of nuclear NAD^+ (nicotinamide adenine dinucleotide), a molecule with essential—yet poorly characterized—functions in DNA repair. In the nucleus of mammalian cells NAD^+ is synthesized by NMNAT1 (nicotinamide mononucleotide adenylyltransferase 1) and fuels the activity of PARP1 and sirtuins (FIG. 15c). The inventors generated NMNAT1 knockout (NMNAT1^−/−) RPE-1 cells and evaluated their sensitivity to a panel of DNA damaging agents (Table 1).

A further test has as its system NMNAT1−/− RPE-1 cells. As to the kind of experiment: 12-day clonogenic survival assay, NMNAT1 knockout cells. Particulars: for IC50: calculated IC50, NMNAT1−/− cells; for sensitivity of NMNAT1−/− cells relative to WT cells: drugs targeting the TS pathway; for Fold change (WT/NMNAT1−/−): ratio of IC50 WT to IC50 NMNAT1−/−. Here is the method:
as §1, §2

Test [1] concerns BRCA2−/− RPE-1 cells (clones C1 and C2). The test is described as follows: Clonogenic formation / survival assay, BRCA2 knockout clones. Here is the method: (§3) FIG. 7. a, Clonogenic formation of wild type (WT) and BRCA2−/− (clones C1 and C2) following exposure to the indicated doses of SIRT6 inhibitor OSS_128167. b, Clonogenic formation of wild type (WT), BRCA2−/− (clones C1 and C2) and BRCA2−/−-derived PARPi-resistant RPE-1 cells following exposure to 0.5 mM SIRT6 inhibitor OSS_128167. c, Clonogenic formation of parental and derived PARPi-resistant CAPAN-1 clones following exposure to the indicated doses of SIRT6 inhibitor OSS_128167. The normal breast epithelial cells MCF10A were included as an HR-proficient cell line.
a. Quantification (top) and representative image (bottom right) of the 12-day clonogenic survival assay in WT and BRCA2^−/− cells following transduction with viral particles carrying either pLentiCRISPRv2 Neo_UNG gRNA (UNG gRNA) or relative control (CTRL gRNA) (n=3). Cells were seeded for clonogenic assay after selection with G418. Bottom left, Immunoblot analysis of UNG after G418 selection. b. […] Right, qPCR-based quantification of UNG activity in the same cell lines as in (left). c. […] Right, immunoblot analysis of UNG in the same samples as in (left). The arrows indicate UNG1 (lower) and UNG2 (upper). Vinculin was used as a loading control. d. […] Left, Quantification (left) and representative images (right) of the 12-day clonogenic survival assay in WT and NMNAT1^−/− cells complemented or not (EV, empty vector) with wild-type (WT) or catalytically-dead mutant (MUT:W169A) NMNAT1 cDNA following transfection with siBRCA2 (n=3). f. Quantification of the 12-day clonogenic survival assay in the HR-deficient cancer cell lines CAPAN1 (BRCA2 mutated) and OVCAR8 (BRCA1 promoter hypermethylation) following transfection with siUNG #7 (n=3). g. Quantification (left) and representative images (right) of the 12-day clonogenic survival assay in a panel of HR-proficient and HR-deficient cancer and normal (MCF10A) cell lines following transfection with siNMNAT1 (n=3).

For test [2], the system named is BRCA2−/−-derived PARPi-resistant RPE-1 cells. As to the kind of experiment: Clonogenic formation, PARPi-resistant BRCA2 knockout cells. The settings on record: 0.5 mM inhibitor. Here is the method:
as §3

Test [3] relates to PARPi-resistant CAPAN-1 clones. As to the kind of experiment: Clonogenic formation, PARPi-resistant CAPAN-1 clones. Particulars: indicated doses. Here is the method: as §3
The test system of another test is MCF10A cells. The test is described as follows: Clonogenic formation, normal breast epithelial cells. The settings on record: same doses as for the CAPAN-1 clones. Here is the method: as §3
Test [4] relates to cells lacking either NMNAT1 or UNG. As to the kind of experiment: γH2AX foci formation (DSB) by immunofluorescence. Particulars: 24 h treatment, EdU-positive cells. Here is the method:
FIG. 11. Uracil excision is regulated by nuclear NAD^+. a. Quantification of post-replicative ssDNA gaps using DNA fiber assay in P53^−/− RPE-1 cells after 48-hours transfection with the indicated siRNAs. b. Schematic of 2′-deoxyuridine (dUTP)/thymidine (dTTP) biosynthetic pathway. The biological processes involved are in italic. c. Nuclear fractionation and immunoblot profiling of the indicated proteins following 24-hour drug exposure (0.1 μM FdUrd+5 μM TAS-114) of WT and UNG^−/− cells. For the washed-out samples (w.o.), cells were harvested 24 hours after drug removal. Western blot images are representative of three experiments. d. Left, quantification of DNA breaks (left, − rUNG) and gDNA-uracil (right, + rUNG) in wild type (WT) and NMNAT1^−/− cells upon 24-hour FdUrd treatment (20 μM) and the indicated hours after drug washout (w.o.). […] Right, Quantification of UNG protein level captured as in (left) normalized over captured PCNA and H3. f. Quantification of γH2AX foci formation before and after 24 h treatment of WT (grey) and NMNAT1^−/− (orange) cells with the indicated doses of TAS-114 (μM). g. Quantification (left) and representative images (right) of 12-day clonogenic survival assay following transfection with siRNAs and drug treatment of WT and NMNAT1^−/− cells as indicated. […]
a. […] Mass spectrometry-based quantification of the indicated metabolites (n=3). c. […]

With `O=c1[nH]c(=O)n([C@H]2C[C@H](O)[C@@H](CO)O2)cc1F` [FDURD, 5-fluorodeoxyuridine], the IC50 – broadly, the concentration needed to halve the response being measured – in the test on WT RPE-1 cells (Homo sapiens, RPE-1) is 51.6 µM. The IC50 in the test with NMNAT1−/− RPE-1 cells (Homo sapiens, RPE-1) was 17.7 µM. Besides, in the test on NMNAT1−/− RPE-1 cells, the “sensitivity of NMNAT1−/− cells relative to WT cells” value was “more sensitive than WT cells” and the “Fold change (WT/NMNAT1−/−)” value was 2.92.
In the case of `OO` [H202], the IC50 in the test on WT RPE-1 cells was 22.8 µM. Besides, in the test with NMNAT1−/− RPE-1 cells, the IC50 was 22.1 µM and the “Fold change (WT/NMNAT1−/−)” value is 1.03.
The like results for `NC(=O)NO` [HU, hydroxyurea] were, in that order, 1570 µM, 637 µM and 2.46.
The corresponding values for `COS(C)(=O)=O` [MMS] are 242 µM, 130 µM and 1.86.
`CN(Cc1cnc2nc(N)nc(N)c2n1)c1ccc(C(=O)N[C@@H](CCC(=O)O)C(=O)O)cc1` [MTX]: the IC50 in the test with WT RPE-1 cells was 112 µM. Moreover, in the test on NMNAT1−/− RPE-1 cells, the IC50 was 8.8 µM, the “sensitivity of NMNAT1−/− cells relative to WT cells” value is “more sensitive than WT cells” and the “Fold change (WT/NMNAT1−/−)” value was 12.75.
Turning to `O=C(Nc1ccc(O)c(C(=O)O)c1)c1cccc(NC(=O)c2ccco2)c1` [OSS_128167], in the test on WT RPE-1 cells (parental HRP RPE-1 cells, indicated doses), the “survival of parental HRP cells” value is recorded as “no effect on the survival”. Also, the clonogenic ability entry is given as “impaired the clonogenic ability” in test [1] (BRCA2−/− RPE-1 cells, indicated doses) and “did not affect the clonogenic ability” with MCF10A cells. The clonogenic formation result in test [2] is “killed the PARPi-resistant BRCA2−/− RPE-1 cells to a similar extent than the parental drug-naïve cells”; in test [3] it was “resulted in cell death”.
With `C[C@@H](NS(=O)(=O)CCCOCn1ccc(=O)[nH]c1=O)c1cccc(OC2CCCC2)c1` [TAS-114], in the test with NMNAT1−/− RPE-1 cells (24-hour exposure), the “survival upon pharmacological inhibition of DUT” value is given as “decreased survival”. Besides, in test [1] (siUNG, 1 μM TAS-114, rescued by knockdown of SMUG1), the “sensitivity of BRCA2−/− cells upon UNG depletion” value is “sensitized”. Also, in test [4], the “DSB formation (γH2AX foci)” value is recorded as “triggered DNA double-strand break (DSB) formation exclusively during DNA replication”.

B1: UGI: peptide inhibitor of UNG, delivered by retroviral particles (protein, UniProt P14739 1-84, looked up)
Uracil-DNA glycosylase …: MTNLSDIIEKETGKQLVIQESILMLPEEVEEVIGNKPESDILVHTAYDESTDENVMLLTSDAPEYKPWALVIQDSNGENKIKML
Regarding B1, in test [1] (retroviral particles carrying UGI, versus WT cells), the “clonogenic survival upon UNG inhibition” value was “selectively kills”.
